Laboratory results: US4405619A, “Antiinflammatory substituted-1,2,4-triazolo[4,3-b]-1,2,4-triazines” (Diamond Shamrock Corporation, priority 1981, dated 1983)

Key:
[1] = test system: carrageenin-induced edema; test: Carrageenin-induced edema (antiinflammatory) assay, rat hind paw; format: in vivo, rat (Long Evans strain, male); details: for ED50: 3 h, oral, dose which reduced edema formation by about 25% or more vs. mean control response in 50% of the animals; for inhibition in vivo at 200 mg/kg: 200 mg/kg oral
Protocol: The procedure employed is a modification of the method of Winter et al., Proc. Soc. Exptl. Biol. Med., 111:544 (1962). The device used for measurement of the paw volume is an adaptation of the water displacement procedure described by Adamkiewicz et al., Can. J. Biochem. Physiol., 33:332 (1955). Test compounds were administered orally, one hour prior to the intraplanter injection of 0.05 mL. of sterile 1.0% solution of carrageenin into the left hind paw of male rats (Long Evans strain) weighing between about 130-200 g. At peak swelling time (3 hrs.) the volume of edema was calculated by differential paw volumes.
Selected compounds of the invention were further tested to determine their ED50 values. The ED50 value is defined as that dose which reduced edema formation by about 25% or more compared with the mean control response (parallel run) in 50% of the animals. Typical results of these tests appear in Table II.

phenylquinone writhing = test: Phenylquinone writhing test (analgesic assay); format: in vivo, mouse (Carworth CF1, male); details: for Phenylquinone Writhing Assay (% Control), percent analgesia, 15 min.: 15 min. after administration; for Phenylquinone Writhing Assay (% Control), percent analgesia, 30 min.: 30 min. after administration; for Phenylquinone Writhing Assay (% Control), percent analgesia, 60 min.: 60 min. after administration
Protocol: Phenylquinone writhing test was employed to evaluate analgesic activity for selected compounds for the present invention according to the following procedure:
Phenylquinone (phenyl-p-benzoquinone, No. 7104, Eastman Organic Chemicals) is made up as a 0.02% aqueous solution and 5% ethyl alcohol. Phenylquinone solutions are made up fresh twice daily. Standard reference agents and the test compounds are dissolved or suspended in a 0.25% methylcellulose solution. A control group consisting of 10 mice (Carworth CF1 male mice) are administered the 0.02% phenylquinone solution at a dose of 0.25 mL./mouse. The mice are housed individually and observed closely for 10 min. for exhibition of writhing. The onset of writhing occurs within 3 min. and 100% of the mice must writh within 10 min. Test compounds are administered orally to groups of 10 mice. The volume given is 0.01 mL. per gram of body weight. Activity can be studied at 15, 30, 60 and 120 min. after oral administration. After the designated time interval of a dose group has elapsed, the mice are challenged with phenylquinone intraperitoneally. Complete blocking of the writhing syndrome for the 10-min. observation period in any one mouse is considered a positive analgesic response for that mouse. Conversely, if any mouse wriths definitely once, it is considered not to be protected. The number of mice not writhing in a group multiplied by 10 equals percent analgesia for that dose at the time interval.

[2] = Rattus norvegicus, 1 hour before carrageenin, edema at peak swelling time (3 hrs.), read-out: % Reduction of Edema

Which ED50 ([1]; Rattus norvegicus) does the source give for `Cc1nnc2nc(-c3cccc(Cl)c3)cnn12` [Example 1, 1,2,4-triazolo[4,3-b]-1,2,4-triazine, 3-methyl-7-(3-chlorophenyl)] here?
The ED50 was 30 mg/kg.

And the inhibition in vivo at 200 mg/kg [1, 2]?
The inhibition in vivo at 200 mg/kg was 39%.

Which inhibition in vivo at 200 mg/kg [1, 2] does the source give for `COCc1nnc2nc(-c3ccccc3)cnn12` [Example 2, 1,2,4-triazolo[4,3-b]-1,2,4-triazine, 3-methoxymethyl-7-phenyl] here?
The inhibition in vivo at 200 mg/kg was 26%.

How did the inhibition in vivo at 200 mg/kg [1, 2] turn out when `Oc1nnc2nc(-c3ccccc3)cnn12` [Example 3, 1,2,4-triazolo[4,3-b]-1,2,4-triazine, 3-hydroxy-7-phenyl] was run?
Its inhibition in vivo at 200 mg/kg is 22%.

For `CC(C)c1nnc2nc(-c3ccccc3)cnn12` [Example 4, 1,2,4-triazolo[4,3-b]-1,2,4-triazine, 3-isopropyl-7-phenyl], which inhibition in vivo at 200 mg/kg [1, 2] is on record?
The inhibition in vivo at 200 mg/kg was 18%.

What about the “Phenylquinone Writhing Assay (% Control), percent analgesia, 15 min.” value (phenylquinone writhing; 100 mg/kg oral) of the same molecule?
The value was 10%.

What about the “Phenylquinone Writhing Assay (% Control), percent analgesia, 30 min.” value (phenylquinone writhing; 100 mg/kg oral) of the same molecule?
Its value is 20%.

What about the “Phenylquinone Writhing Assay (% Control), percent analgesia, 60 min.” value (phenylquinone writhing; 100 mg/kg oral) of the same molecule?
Its value is 20%.

How did the ED50 ([1]; Rattus norvegicus) turn out when `CCc1nnc2nc(-c3ccccc3)cnn12` [Example 5, 1,2,4-triazolo[4,3-b]-1,2,4-triazine, 3-ethyl-7-phenyl] was run?
The ED50 was 100 mg/kg.

And the inhibition in vivo at 200 mg/kg [1, 2]?
The inhibition in vivo at 200 mg/kg was 40%.

What about the “Phenylquinone Writhing Assay (% Control), percent analgesia, 15 min.” value (phenylquinone writhing; 100 mg/kg oral) of the same molecule?
Its value is 30%.

What about the “Phenylquinone Writhing Assay (% Control), percent analgesia, 30 min.” value (phenylquinone writhing; 100 mg/kg oral) of the same molecule?
Its value is 30%.

And the “Phenylquinone Writhing Assay (% Control), percent analgesia, 60 min.” value (phenylquinone writhing; 100 mg/kg oral)?
Its value is 70%.

Which inhibition in vivo at 200 mg/kg [1, 2] does the source give for `CC(C)c1nnc2nc(-c3ccc(Cl)c(Cl)c3)cnn12` [Example 6, 1,2,4-triazolo[4,3-b]-1,2,4-triazine, 3-isopropyl-7-(3',4'-dichlorophenyl)] here?
The inhibition in vivo at 200 mg/kg was 33%.

With `Clc1ccc(-c2cnn3cnnc3n2)cc1Cl` [Example 7, 1,2,4-triazolo[4,3-b]-1,2,4-triazine, 7-(3',4'-dichlorophenyl)] as the molecule, how does the ED50 ([1]; Rattus norvegicus) read?
The ED50 was 1 mg/kg.

What about the inhibition in vivo at 200 mg/kg [1, 2] of the same molecule?
The inhibition in vivo at 200 mg/kg was 36%.

And the “Phenylquinone Writhing Assay (% Control), percent analgesia, 15 min.” value (phenylquinone writhing; 100 mg/kg oral)?
The value was 30%.

What about the “Phenylquinone Writhing Assay (% Control), percent analgesia, 30 min.” value (phenylquinone writhing; 100 mg/kg oral) of the same molecule?
Its value is 50%.

What about the “Phenylquinone Writhing Assay (% Control), percent analgesia, 60 min.” value (phenylquinone writhing; 100 mg/kg oral) of the same molecule?
The value was 30%.

With `COCc1nnc2nc(-c3ccc(C)cc3)cnn12` [Example 8, 1,2,4-triazolo[4,3-b]-1,2,4-triazine, 3-methoxymethyl-7-(4'-methylphenyl)] as the molecule, how does the “% Reduction of Edema” value ([1]; 100 mg/kg oral, 1 hour before carrageenin, edema at peak swelling time (3 hrs.)) read?
Its value is 16%.

`Cc1nnc2nc(-c3ccccc3)c(-c3ccccc3)nn12` [Example 9, 1,2,4-triazolo[4,3-b]-1,2,4-triazine, 3-methyl-6,7-diphenyl] was tested. Which inhibition in vivo at 200 mg/kg [1, 2] did it give?
Its inhibition in vivo at 200 mg/kg is 35%.

How did the ED50 ([1]; Rattus norvegicus) turn out when `Clc1ccc(-c2cnn3cnnc3n2)cc1` [Example 10, 1,2,4-triazolo[4,3-b]-1,2,4-triazine, 7-(4'-chlorophenyl)] was run?
The ED50 was 10 mg/kg.

And the inhibition in vivo at 200 mg/kg [1, 2]?
The inhibition in vivo at 200 mg/kg was 27%.

`Cc1nnc2nc(-c3ccccc3)cnn12` [Example 12, 1,2,4-triazolo[4,3-b]-1,2,4-triazine, 3-methyl-7-phenyl] was tested. Which inhibition in vivo at 200 mg/kg [1, 2] did it give?
Its inhibition in vivo at 200 mg/kg is 70%.

For `c1ccc(-c2cnn3cnnc3n2)cc1` [Example 13, 1,2,4-triazolo[4,3-b]-1,2,4-triazine, 7-phenyl], which inhibition in vivo at 175 mg/kg ([1]; Rattus norvegicus, 175 mg/kg oral, 1 hour before carrageenin, edema at peak swelling time (3 hrs.), read-out: % Reduction of Edema) is on record?
Its inhibition in vivo at 175 mg/kg is 82%.

And the “Phenylquinone Writhing Assay (% Control), percent analgesia, 15 min.” value (phenylquinone writhing; 50 mg/kg oral)?
Its value is 20%.

And the “Phenylquinone Writhing Assay (% Control), percent analgesia, 30 min.” value (phenylquinone writhing; 50 mg/kg oral)?
Its value is 20%.

For `FC(F)(F)c1nnc2nc(-c3ccccc3)cnn12` [Example 15, 1,2,4-triazolo[4,3-b]-1,2,4-triazine, 3-trifluoromethyl-7-phenyl], which inhibition in vivo at 200 mg/kg [1, 2] is on record?
Its inhibition in vivo at 200 mg/kg is 30%.

For `c1ccc(-c2nc3nncn3nc2-c2ccccc2)cc1` [Example 22, 1,2,4-triazolo[4,3-b]-1,2,4-triazine, 6,7-diphenyl], which inhibition in vivo at 200 mg/kg [1, 2] is on record?
The inhibition in vivo at 200 mg/kg was 32%.

With `CC(C)c1nnc2nc(-c3ccccc3)c(-c3ccccc3)nn12` [Example 23, 1,2,4-triazolo[4,3-b]-1,2,4-triazine, 3-isopropyl-5,6-diphenyl] as the molecule, how does the ED50 ([1]; Rattus norvegicus) read?
The ED50 was 30 mg/kg.

And the inhibition in vivo at 200 mg/kg [1, 2]?
The inhibition in vivo at 200 mg/kg was 37%.

How did the inhibition in vivo at 200 mg/kg [1, 2] turn out when `Cc1nc2nnc(C)n2nc1C` [Example 25, 1,2,4-triazolo[4,3-b]-1,2,4-triazine, 3,6,7-trimethyl] was run?
The inhibition in vivo at 200 mg/kg was 49%.

For `Cc1nnc2nc(-c3ccccc3Cl)cnn12` [Example 26, 1,2,4-triazolo[4,3-b]-1,2,4-triazine, 3-methyl-7-(2'-chlorophenyl)], which inhibition in vivo at 200 mg/kg [1, 2] is on record?
Its inhibition in vivo at 200 mg/kg is 56%.

With `Clc1cccc(-c2cnn3cnnc3n2)c1` [Example 28, 1,2,4-triazolo[4,3-b]-1,2,4-triazine, 7-(3'-chlorophenyl)] as the molecule, how does the inhibition in vivo at 200 mg/kg [1, 2] read?
The inhibition in vivo at 200 mg/kg was 21%.

How did the inhibition in vivo at 200 mg/kg [1, 2] turn out when `Clc1ccccc1-c1cnn2cnnc2n1` [Example 36, 1,2,4-triazolo[4,3-b]-1,2,4-triazine, 7-(2'-chlorophenyl)] was run?
The inhibition in vivo at 200 mg/kg was 65%.
